Results as given in patent publication US20100298141A1, “SUBSTITUTED PYRIDINE N-OXIDE HERBICIDES” (E. I. DU PONT DE NEMOURS AND COMPANY, priority 2007, published 2010).

Legend:
[1] = test system: southern sandbur; experiment: Test F preemergence test; type: in vivo, Cenchrus echinatus; conditions: scale 0 to 100
How it was run: (§1)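 Compounds in a non-phytotoxic solvent formulation with surfactant were applied before emergence after sowing, or, for sugarcane, also postemergence. Evaluation was visual, against controls, after 14 to 21 greenhouse days.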

[2] = test system: goosegrass; experiment: Test F preemergence test; type: in vivo, Eleusine indica; conditions: scale 0 to 100
How it was run: as §1

[3] = test system: corn; experiment: Test C pre-/postemergence test; type: in vivo, Zea mays; conditions: for Plant response rating, Corn: 31 g ai/ha, scale 0 to 100 (0 no effect, 100 complete control)
How it was run: (§2)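 Test chemicals were formulated with surfactant in a non-phytotoxic solvent and sprayed both on freshly planted seeds (preemergence) and on 1- to 4-leaf plants of 2–18 cm (postemergence). Flooded-paddy pots received compound directly into 3 cm of standing water, maintained for the test.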

[4] = test system: large crabgrass; experiment: Test F preemergence test; type: in vivo, Digitaria sanguinalis; conditions: scale 0 to 100
How it was run: as §1

[5] = test system: kochia; experiment: Test F preemergence test; type: in vivo, Kochia scoparia; conditions: scale 0 to 100
How it was run: as §1

[6] = test system: quackgrass; experiment: Test F preemergence test; type: in vivo, Elytrigia repens; conditions: scale 0 to 100
How it was run: as §1

[7] = test system: blackgrass; experiment: Test C pre-/postemergence test; type: in vivo, Alopecurus myosuroides; conditions: for Plant response rating, Blackgrass: 31 g ai/ha, scale 0 to 100 (0 no effect, 100 complete control)
How it was run: as §2

[8] = test system: bermudagrass; experiment: Test F preemergence test; type: in vivo, Cynodon dactylon; conditions: scale 0 to 100
How it was run: as §1

[9] = test system: purple nutsedge; experiment: Test F preemergence test; type: in vivo, Cyperus rotundus; conditions: scale 0 to 100
How it was run: as §1

[10] = test system: broadleaf signalgrass; experiment: Test F preemergence test; type: in vivo, Brachiaria platyphylla; conditions: scale 0 to 100
How it was run: as §1

[11] = test system: barnyardgrass; experiment: Test F preemergence test; type: in vivo, Echinochloa crus-galli
How it was run: as §1

[12] = test system: woolly cupgrass; experiment: Test C pre-/postemergence test; type: in vivo, Eriochloa villosa; conditions: for Plant response rating, Cupgrass, Woolly: 31 g ai/ha, scale 0 to 100 (0 no effect, 100 complete control)
How it was run: as §2

[13] = test system: Italian ryegrass; experiment: Test F preemergence test; type: in vivo, Lolium multiflorum; conditions: scale 0 to 100
How it was run: as §1

[14] = test system: common ragweed; experiment: Test F preemergence test; type: in vivo, Ambrosia elation; conditions: scale 0 to 100
How it was run: as §1

[15] = test system: Surinam grass; experiment: Test F preemergence test; type: in vivo, Brachiaria decumbens; conditions: scale 0 to 100
How it was run: as §1

[16] = test system: mustard; experiment: Test F preemergence test; type: in vivo, Brassica nigra; conditions: scale 0 to 100
How it was run: as §1

[17] = 62 g ai/ha, Preemergence, scale 0 to 100
[18] = 125 g ai/ha, preemergence, scale 0 (no effect) to 100 (complete control)
[19] = preemergence, 250 g ai/ha, scale 0 (no effect) to 100 (complete control)
[20] = 125 g ai/ha, preemergence, scale 0 to 100
[21] = Preemergence, 31 g ai/ha, scale 0 to 100

## CCc1cc[n+]([O-])c(S(=O)(=O)Cc2c(C(F)(F)F)nn(C)c2OCC(F)(F)F)c1 [Compound 60]
[1]; 125 g ai/ha, preemergence
  Sandbur plant response rating: 100
[1]; 250 g ai/ha, preemergence
  Sandbur plant response rating: 100
[1]; Preemergence, 62 g ai/ha
  Plant response rating, Sandbur: 65
[1]; Preemergence, 31 g ai/ha
  Plant response rating, Sandbur: 20
[2]; 62 g ai/ha, Preemergence
  Goosegrass plant response rating: 80
[2]; 125 g ai/ha, preemergence
  Goosegrass plant response rating: 100
[2]; 250 g ai/ha, preemergence
  Goosegrass plant response rating: 100
[2]; Preemergence, 31 g ai/ha
  Plant response rating, Goosegrass: 80
[3]; [17]
  Corn plant response rating: 20
[3]; [18]
  Corn plant response rating: 55
[3]; Preemergence
  Plant response rating, Corn: 0
[3]; [19]
  Corn plant response rating: 98
[4]; 62 g ai/ha, Preemergence
  Crabgrass, Large plant response rating: 98
[4]; 125 g ai/ha, preemergence
  Crabgrass, Large plant response rating: 100
[4]; 250 g ai/ha, preemergence
  Crabgrass, Large plant response rating: 100
[4]; Preemergence, 31 g ai/ha
  Plant response rating, Crabgrass, Large: 0
[5]; 62 g ai/ha, Preemergence
  Kochia plant response rating: 65
[5]; 125 g ai/ha, preemergence
  Kochia plant response rating: 100
[5]; 250 g ai/ha, preemergence
  Kochia plant response rating: 100
[5]; Preemergence, 31 g ai/ha
  Plant response rating, Kochia: 0
[6]; 62 g ai/ha, Preemergence
  Quackgrass plant response rating: 75
[6]; 125 g ai/ha, preemergence
  Quackgrass plant response rating: 90
[6]; 250 g ai/ha, preemergence
  Quackgrass plant response rating: 100
[6]; Preemergence, 31 g ai/ha
  Plant response rating, Quackgrass: 30
[7]; [17]
  Blackgrass plant response rating: 90
[7]; [18]
  Blackgrass plant response rating: 100
[7]; Preemergence
  Plant response rating, Blackgrass: 85
[7]; [19]
  Blackgrass plant response rating: 100
[8]; 62 g ai/ha, Preemergence
  Bermudagrass plant response rating: 80
[8]; 125 g ai/ha, preemergence
  Bermudagrass plant response rating: 100
[8]; 250 g ai/ha, preemergence
  Bermudagrass plant response rating: 100
[8]; Preemergence, 31 g ai/ha
  Plant response rating, Bermudagrass: 20
[9]; 62 g ai/ha, Preemergence
  Purple Nutsedge plant response rating: 50
[9]; 125 g ai/ha, preemergence
  Purple Nutsedge plant response rating: 80
[9]; 250 g ai/ha, preemergence
  Purple Nutsedge plant response rating: 90
[9]; Preemergence, 31 g ai/ha
  Plant response rating, Purple Nutsedge: 0
[10]; 125 g ai/ha, preemergence
  Signalgrass plant response rating: 75
[10]; 250 g ai/ha, preemergence
  Signalgrass plant response rating: 100
[10]; Preemergence, 62 g ai/ha
  Plant response rating, Signalgrass: 75
[10]; Preemergence, 31 g ai/ha
  Plant response rating, Signalgrass: 30
[11]; [17]
  Barnyardgrass plant response rating: 100
[11]; [20]
  Barnyardgrass plant response rating: 100
[11]; 250 g ai/ha, preemergence, scale 0 to 100
  Barnyardgrass plant response rating: 100
[11]; [21]
  Plant response rating, Barnyardgrass: 65
[12]; [17]
  Cupgrass, Woolly plant response rating: 100
[12]; [18]
  Cupgrass, Woolly plant response rating: 100
[12]; Preemergence
  Plant response rating, Cupgrass, Woolly: 100
[12]; [19]
  Cupgrass, Woolly plant response rating: 100
[13]; 125 g ai/ha, preemergence
  Ryegrass, Italian plant response rating: 90
[13]; 250 g ai/ha, preemergence
  Ryegrass, Italian plant response rating: 100
[13]; Preemergence, 62 g ai/ha
  Plant response rating, Ryegrass, Italian: 75
[13]; Preemergence, 31 g ai/ha
  Plant response rating, Ryegrass, Italian: 75
[14]; 125 g ai/ha, preemergence
  Ragweed plant response rating: 75
[14]; 250 g ai/ha, preemergence
  Ragweed plant response rating: 100
[14]; Preemergence, 62 g ai/ha
  Plant response rating, Ragweed: 65
[14]; Preemergence, 31 g ai/ha
  Plant response rating, Ragweed: 0
[15]; 125 g ai/ha, preemergence
  Surinam Grass plant response rating: 100
[15]; 250 g ai/ha, preemergence
  Surinam Grass plant response rating: 100
[15]; Preemergence, 62 g ai/ha
  Plant response rating, Surinam Grass: 90
[15]; Preemergence, 31 g ai/ha
  Plant response rating, Surinam Grass: 80
[16]; 62 g ai/ha, Preemergence
  Black Mustard plant response rating: 60
[16]; 125 g ai/ha, preemergence
  Black Mustard plant response rating: 100
[16]; 250 g ai/ha, preemergence
  Black Mustard plant response rating: 100
[16]; Preemergence, 31 g ai/ha
  Plant response rating, Black Mustard: 0

## CCn1nc(C(F)(F)F)c(CS(=O)(=O)c2cccc[n+]2[O-])c1OCC(F)(F)F [Compound 63]
[1]; 16 g ai/ha, preemergence
  Plant response rating, Sandbur: 65
[1]; 125 g ai/ha, preemergence
  Sandbur plant response rating: 100
[1]; Preemergence, 62 g ai/ha
  Plant response rating, Sandbur: 100
[1]; Preemergence, 31 g ai/ha
  Plant response rating, Sandbur: 100
[2]; 16 g ai/ha, preemergence
  Plant response rating, Goosegrass: 80
[2]; 62 g ai/ha, Preemergence
  Goosegrass plant response rating: 98
[2]; 125 g ai/ha, preemergence
  Goosegrass plant response rating: 100
[2]; Preemergence, 31 g ai/ha
  Plant response rating, Goosegrass: 90
[3]; [17]
  Corn plant response rating: 85
[3]; [18]
  Corn plant response rating: 90
[3]; Preemergence
  Plant response rating, Corn: 5
[3]; [19]
  Corn plant response rating: 100
[4]; 16 g ai/ha, preemergence
  Plant response rating, Crabgrass, Large: 25
[4]; 62 g ai/ha, Preemergence
  Crabgrass, Large plant response rating: 95
[4]; 125 g ai/ha, preemergence
  Crabgrass, Large plant response rating: 100
[4]; Preemergence, 31 g ai/ha
  Plant response rating, Crabgrass, Large: 90
[5]; 16 g ai/ha, preemergence
  Plant response rating, Kochia: 0
[5]; 62 g ai/ha, Preemergence
  Kochia plant response rating: 0
[5]; 125 g ai/ha, preemergence
  Kochia plant response rating: 100
[5]; Preemergence, 31 g ai/ha
  Plant response rating, Kochia: 0
[6]; 16 g ai/ha, preemergence
  Plant response rating, Quackgrass: 0
[6]; 62 g ai/ha, Preemergence
  Quackgrass plant response rating: 95
[6]; 125 g ai/ha, preemergence
  Quackgrass plant response rating: 100
[6]; Preemergence, 31 g ai/ha
  Plant response rating, Quackgrass: 65
[7]; [17]
  Blackgrass plant response rating: 100
[7]; [18]
  Blackgrass plant response rating: 100
[7]; Preemergence
  Plant response rating, Blackgrass: 70
[7]; [19]
  Blackgrass plant response rating: 100
[8]; 16 g ai/ha, preemergence
  Plant response rating, Bermudagrass: 50
[8]; 62 g ai/ha, Preemergence
  Bermudagrass plant response rating: 95
[8]; 125 g ai/ha, preemergence
  Bermudagrass plant response rating: 100
[8]; Preemergence, 31 g ai/ha
  Plant response rating, Bermudagrass: 80
[9]; 16 g ai/ha, preemergence
  Plant response rating, Purple Nutsedge: 0
[9]; 62 g ai/ha, Preemergence
  Purple Nutsedge plant response rating: 65
[9]; 125 g ai/ha, preemergence
  Purple Nutsedge plant response rating: 75
[9]; Preemergence, 31 g ai/ha
  Plant response rating, Purple Nutsedge: 15
[10]; 16 g ai/ha, preemergence
  Plant response rating, Signalgrass: 15
[10]; 125 g ai/ha, preemergence
  Signalgrass plant response rating: 100
[10]; Preemergence, 62 g ai/ha
  Plant response rating, Signalgrass: 100
[10]; Preemergence, 31 g ai/ha
  Plant response rating, Signalgrass: 40
[11]; 16 g ai/ha, preemergence, scale 0 to 100 (0 no effect, 100 complete control)
  Plant response rating, Barnyardgrass: 80
[11]; [17]
  Barnyardgrass plant response rating: 95
[11]; [20]
  Barnyardgrass plant response rating: 100
[11]; [21]
  Plant response rating, Barnyardgrass: 80
[12]; [17]
  Cupgrass, Woolly plant response rating: 85
[12]; [18]
  Cupgrass, Woolly plant response rating: 85
[12]; Preemergence
  Plant response rating, Cupgrass, Woolly: 0
[13]; 16 g ai/ha, preemergence
  Plant response rating, Ryegrass, Italian: 0
[13]; 125 g ai/ha, preemergence
  Ryegrass, Italian plant response rating: 100
[13]; Preemergence, 62 g ai/ha
  Plant response rating, Ryegrass, Italian: 80
[13]; Preemergence, 31 g ai/ha
  Plant response rating, Ryegrass, Italian: 60
[14]; 16 g ai/ha, preemergence
  Plant response rating, Ragweed: 0
[14]; 125 g ai/ha, preemergence
  Ragweed plant response rating: 100
[14]; Preemergence, 62 g ai/ha
  Plant response rating, Ragweed: 90
[14]; Preemergence, 31 g ai/ha
  Plant response rating, Ragweed: 40
[15]; 16 g ai/ha, preemergence
  Plant response rating, Surinam Grass: 70
[15]; 125 g ai/ha, preemergence
  Surinam Grass plant response rating: 100
[15]; Preemergence, 62 g ai/ha
  Plant response rating, Surinam Grass: 100
[15]; Preemergence, 31 g ai/ha
  Plant response rating, Surinam Grass: 80
[16]; 16 g ai/ha, preemergence
  Plant response rating, Black Mustard: 0
[16]; 62 g ai/ha, Preemergence
  Black Mustard plant response rating: 50
[16]; 125 g ai/ha, preemergence
  Black Mustard plant response rating: 90
[16]; Preemergence, 31 g ai/ha
  Plant response rating, Black Mustard: 50
